The text below walks through data of patent US20140030341A1, “POLYMERS AND METHODS FOR THE TREATMENT OF PAIN” (RUTGERS, THE STATE UNIVERSITY OF NEW JERSEY, priority 2011, published 2014).

For data set [1] the following is noted: 37° C., pH 7.4 buffer, HPLC.
Procedure: The system was connected to a Dell computer running Empire software. Samples were filtered using 0.22 μm poly(vinylidine fluoride) syringe filters (Fisher). […] Mobile phase used was composed of 50 mM KH2PO4, 2.5 mM sodium dodecyl sulfate, 25% acetonitrile, 75% water at pH 3.
In vitro degradation studies. Diacid 3 (5.0 mg, triplicate) was placed into scintillation vials and 20.00 mL phosphate buffered saline (PBS) pH 7.4 added. Samples were incubated at 37° C. under constant shaking (60 rpm) in an Excella E25 Incubator Shaker (New Brunswick Scientific). PBS (1.00 mL) was removed at predetermined time points (2 h, 5 h, 10 h, and daily starting on day 1) and replaced with fresh PBS (1.00 mL). The pH was checked using an Accumet® Research AR15 pH meter (Fisher Scientific) and adjusted using 0.50 M NaOH when needed. Samples were immediately analyzed by HPLC using the conditions outlined above.
Samples were incubated at 37° C. under constant shaking (60 rpm) in an Excella E25 Incubator Shaker (New Brunswick Scientific). PBS (20.00 mL) was removed daily and replaced with fresh PBS. Samples were analyzed by HPLC.
The subject of data set [2] is 3T3 fibroblasts cells (NIH 3T3 fibroblast cell line).
Procedure: Cytocompatibility was evaluated by culturing 3T3 fibroblasts cells (NIH 3T3 fibroblast cell line) in diacid- and/or polymer-containing medium at concentrations of 0.10 and 0.01 mg/mL Cell culture medium consisted of Dulbecco's modified Eagle's medium (DMEM), 10 vol. % fetal bovine serum (Atlanta Biologicals, Lawrenceville, Ga.), 1% 1-glutamate, and 1% penicillin/streptomycin. Fibroblasts were seeded at a density of 2,000 cells/well in 96 well plates containing 150 μL of culture medium. The positive control consisted of fibroblasts with cell culture media only and the negative control consisted of fibroblasts with cell culture media and 5% 200-proof ethanol (PHARMCO-AAPER). […] Cell viability was determined by using Calcein AM and ethidium homodimer-1 staining (Molecular Probes) according to the manufacturer's protocol and the results normalized to the positive control. […] Experiments were performed in quadruplicates.

Consider `CN1CC[C@]23c4c5ccc(OC(=O)CCCC(=O)O)c4O[C@H]2[C@@H](OC(=O)CCCC(=O)O)C=C[C@H]3[C@H]1C5` [Diacid 3], for which the hydrolytic degradation pathway entry in data set [1] was “hydrolyzes into a monoacid”. The “cell viability vs positive control (FIG. 7A)” value in data set [2] (0.10 mg/mL, 95% confidence level) is “no statistical differences”. In addition, the cytotoxicity towards fibroblasts result in data set [2] (0.10 and 0.01 mg/mL) is on record as “non-cytotoxic”. Further, the “cell viability vs positive control (statistical analysis)” value in data set [2] (0.10 and 0.01 mg/mL, 24, 48 and 72 h, 95% confidence level) is given as “no significant differences”.
